{"source": "ChEMBL document CHEMBL5729293", "about": "“Inhibitors of KEAP1-Nrf2 protein-protein interaction” (2022)"}
{"assay": "Fluorescence Based Assay: The details of the KEAP1 KELCH ThermoFluor® Assay Construct are as follows: Kelch domain of human KEAP 1 (321-624 aa) was used in the assay. The protein was expressed in E. coli with 6His tag that was cleaved prior to receipt for use.ThermoFluor® experiments were carried out using instruments owned by Janssen Research and Discovery, L.L.C. through its acquisition of 3-Dimensional Pharmaceuticals, Inc. 1,8-ANS (Invitrogen) was used as a fluorescent dye. Protein (KEAP Kelch) and compound solutions were dispensed into black 384-well polypropylene PCR microplates (Abgene) and overlayed with silicone oil (1 μL, Fluka, type DC 200) to prevent evaporation.Reference wells contained KEAP Kelch without compounds, and the assay conditions were as follows: 1.1 μM (0.037mg/mL) KEAP Kelch, 80 μM 1,8-ANS, 25 mM PIPES, pH 7.0, 100 mM NaCl, 0.002% Tween-20.", "units": {"Kd": "nM"}}
{"compound": "Cc1c(C(CC(=O)O)c2ccc(Cl)c(CN3CC4CCCCN4c4ncccc4S3(=O)=O)c2)ccn2c(C(F)(F)F)nnc12", "note": "(centres undefined)", "Kd": "< 1"}
{"compound": "Cc1ccc([C@H](CC(=O)O)c2ccn3c(C4CC4)nnc3c2C)cc1CN1C[C@H]2CCCN2c2ncccc2S1(=O)=O", "Kd": "< 1"}
{"compound": "CCn1nnc2c(C)c([C@H](c3ccc(C)c(CN4CC5(CCOCC5)Oc5ncc(C)cc5S4(=O)=O)n3)C(C)(C)C(=O)O)ccc21", "Kd": "< 1"}
{"compound": "Cc1ccc([C@@H](c2ccn3c(C(F)(F)F)nnc3c2C)C(C)(C)C(=O)O)cc1CN1CC2(CCOCC2)Oc2nc(O[C@H](C)CN3CCCCC3)c(C)cc2S1(=O)=O", "Kd": "< 1"}
{"compound": "CC[C@@H]1CN(Cc2cc([C@H](CC(=O)O)c3ccn4c(C(F)(F)F)nnc4c3)ccc2C)S(=O)(=O)c2cccnc2O1", "Kd": "< 1"}
{"compound": "Cc1ccc([C@@H](CC(=O)O)c2ccn3c(C)nnc3c2)cc1CN1C[C@H]2CCCN2c2ccccc2S1(=O)=O", "Kd": "< 1"}
{"compound": "Cc1ccc([C@H](CC(=O)O)c2ccn3c(C(F)(F)F)nnc3c2C)nc1CN1C[C@@H]2CCCCN2c2ncc(Cl)cc2S1(=O)=O", "Kd": "< 1"}
{"compound": "Cc1ccc([C@@H](CC(=O)O)c2ccn3c(C(F)(F)F)nnc3c2C)cc1CN1C[C@H]2CCCCN2c2ncccc2S1(=O)=O", "Kd": "< 1"}
{"compound": "Cc1ncc([C@H](c2ccn3c(C(F)(F)F)nnc3c2C)C(C)(C)C(=O)O)cc1CN1C[C@@H]2CCCCN2c2ncc(C#N)cc2S1(=O)=O", "Kd": "< 1"}
